This passage reports IC50 results from patent US6803374B2, “Compounds useful for treating hepatitis C virus” (priority 2001, dated 2004).

Usually IC50 stands for the concentration that gives 50% inhibition. Read a low IC50 as greater potency.

For the assay, the target named is T1, HCV NS5B RdRp genotype 1b (Hepatitis C virus genotype 1b, UniProt Q9WMX2).
T1 construct: The protein was expressed with an 18 amino acid C-terminal truncation to enhance the solubility; made in house; host or cells: E. coli BL21(DE3)
Put plainly: HCV NS5B RdRp enzyme assay. The assay is classed as biochemical. The conditions noted are these: IC50, HCV RdRp genotype 1b enzyme, C-terminal 18 aa truncated; average of single point IC50 values.

Each structure is given as a SMILES string.

T1 sequence (Q9WMX2 2420-2992): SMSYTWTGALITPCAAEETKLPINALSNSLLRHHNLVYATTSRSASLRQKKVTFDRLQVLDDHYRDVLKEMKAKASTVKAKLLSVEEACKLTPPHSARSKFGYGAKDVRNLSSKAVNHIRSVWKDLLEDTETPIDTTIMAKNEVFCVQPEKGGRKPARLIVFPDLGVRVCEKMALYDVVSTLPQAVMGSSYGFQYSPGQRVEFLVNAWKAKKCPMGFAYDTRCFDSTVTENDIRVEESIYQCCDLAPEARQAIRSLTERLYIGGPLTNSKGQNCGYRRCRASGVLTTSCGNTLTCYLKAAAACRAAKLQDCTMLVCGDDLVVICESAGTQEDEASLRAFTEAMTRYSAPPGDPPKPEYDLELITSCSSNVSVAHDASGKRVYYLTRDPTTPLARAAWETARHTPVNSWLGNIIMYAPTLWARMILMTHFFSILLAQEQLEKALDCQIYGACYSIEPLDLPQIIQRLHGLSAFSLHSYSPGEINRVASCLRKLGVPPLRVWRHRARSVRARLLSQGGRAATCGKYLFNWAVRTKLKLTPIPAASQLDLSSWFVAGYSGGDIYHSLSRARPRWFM

Take `O=C(O)CNC(=O)c1ccc(-c2ccsc2)c(COc2ccc(-c3nc4cc(-c5nnn[nH]5)ccc4n3C3CCCCC3)cc2)c1` [Example 143]: the IC50 came out at 80 nM. That is a double-digit nanomolar value.
As to `N#Cc1ccc(-c2ccc(C(=O)N3CCC(O)CC3)cc2COc2ccc(-c3nc4cc(-c5nnn[nH]5)ccc4n3C3CCCCC3)cc2)cc1` [Example 149], half-maximal inhibition (IC50) was put at 220 nM.
In the case of `CN(C)C(=O)c1ccc(-c2ccc3[nH]cc(C(=O)C(F)(F)F)c3c2)c(COc2ccc(-c3nc4cc(-c5nnn[nH]5)ccc4n3C3CCCCC3)cc2)c1` [Example 152], 420 nM corresponded to half-maximal inhibition (IC50).
The compound `O=C(O)CNC(=O)c1ccc(-c2ccc3[nH]cc(C(=O)C(F)(F)F)c3c2)c(COc2ccc(-c3nc4cc(-c5nnn[nH]5)ccc4n3C3CCCCC3)cc2)c1` [Example 153] came in with an IC50 of 260 nM.
Compound `NC(=O)CCNC(=O)c1ccc(-c2ccc3[nH]cc(C(=O)C(F)(F)F)c3c2)c(COc2ccc(-c3nc4cc(-c5nnn[nH]5)ccc4n3C3CCCCC3)cc2)c1` [Example 155] gave an IC50 of 270 nM.
